Assay [1] in a line: Inhibition of Leishmania mexicana GAPDH(glyceraldehyde-3-phosphate dehydrogenase).
The nature of assay [2]: Compound was tested for the inhibition of Leishmania mexicana GAPDH(glyceraldehyde-3-phosphate dehydrogenase).

With `Nc1ncnc2c1ncn2[C@@H]1O[C@H](CO)[C@@H](O)[C@H]1O` [ADENOSINE], in assay [1], the affinity corresponds to a Ki of 2500 µM.

On to `CC(C)=CCNc1ncnc2c1nc(-c1cccs1)n2C1O[C@H](CO)[C@@H](O)[C@H]1O` (some centres undefined), for which the results for the Ki in assay [1] and in assay [2] were 9 µM and 18 µM, respectively.

In turn, `Nc1ncnc2c1ncn2C1O[C@H](CNC(=O)c2ccccc2)[C@@H](O)[C@H]1O` (some centres undefined) gave a Ki in assay [1] of 3300 µM.

`O=C1c2ccccc2C(=O)N1C[C@H]1OC(n2cnc3c(NCc4ccccc4)ncnc32)[C@H](O)[C@@H]1O` (some centres undefined) gave a Ki in assay [1] of 4000 µM.

The molecule `CC(C)Nc1nc2c(N)ncnc2n1C1O[C@H](CO)[C@@H](O)[C@H]1O` (some centres undefined) showed a Ki in assay [1] of 1500 µM.

Molecule `Nc1ncnc2c1nc(-c1cccs1)n2[C@@H]1O[C@H](CO)[C@@H](O)[C@H]1O` yielded a Ki in assay [1] of 300 µM.

On to `OC[C@H]1O[C@@H](n2cnc3c(NCc4ccccc4)ncnc32)[C@H](O)[C@@H]1O` [N6-BENZYLADENOSINE], for which the affinity in assay [1] corresponds to a Ki of 2800 µM.

In turn, `NC(=O)c1ccccc1C(=O)NC[C@H]1OC(n2cnc3c(NCc4ccccc4)ncnc32)[C@H](O)[C@@H]1O` (some centres undefined) yielded a Ki in assay [1] of 800 µM.

The values above are taken from ChEMBL document CHEMBL1130706, “Synthesis and structure-activity relationships of adenosine analogs as inhibitors of trypanosomal glyceraldehyde-3-phosphate dehydrogenase. Modifications at positions 5' and 8” (Bioorg Med Chem Lett, 1998).
